“Also recorded” adds a separate entry of the source.
What was measured:
Rac protein = test: Nuclear transfer of GFP/Rac fusion protein in transformed HUVEC, observed by fluorescence microscopy; format: cell-based; settings: HUVEC expressing GFP/Rac fusion protein; pitavastatin 1 μM, 15 hours stationary culture; GFP fluorescence, nuclei stained with Hoechst
Procedure: The present inventors measured the behavior of Rac protein in HUVEC with an HMG-CoA reductase inhibitor, particularly pitavastatin. For this measurement, a gene encoding a Rac/fluorescence protein GFP fusion protein was introduced into HUVEC to prepare a transformed cell expressing a GFP/Rac fusion protein. This transformed cell was cultured, and the state of Rac distributed in the cell in the presence or absence of pitavastatin was examined by observing the fluorescence of GFP. A gene encoding the whole area of a Rac translation region was introduced into a predetermined position of a commercial plasmid pEGFP-C1 for preparation of a fusion protein consisting of GFP and a desired protein, to construct a plasmid comprising the GFP-Rac gene. After HUVECs were put to a 6-well plate and then cultured overnight in EGM-2 medium. Using Fugene 6, the plasmid construct DNA prepared above was added in an amount of 0.8 μg/well to the cells. The cells were further cultured for 21 hours in EGM-2 medium, and then the fluorescence of GFP was observed under a fluorescence microscope. Six hours after the culture of HUVECs to which the plasmid construct DNA had been added was initiated, pitavastatin was added to the cells to a final concentration of 1 μM. And then the cells were subjected to stationary culture for 15 hours, fixed onto a prepared slide and observed under a fluorescence microscope. […]

[1] = system: vascular endothelial cells; settings: cited from earlier work

O=C(O)C[C@H](O)C[C@H](O)/C=C/c1c(C2CC2)nc2ccccc2c1-c1ccc(F)cc1 [pitavastatin, (3R,5S,6E)-7-[2-cyclopropyl-4-(4-fluorophenyl)-3-quinolyl]-3,5-dihydroxy-6-heptenoic acid]
state of Rac distributed in the cell (transfer of GFP-Rac into the nucleus) (Rac protein): fluorescence of GFP was localized in a certain area of the cells; also recorded: GFP-Rac is transferred to a nucleus | expression of MCP-1 [1]: suppresses | expression of NO synthase [1]: promotes | expression of PAI-1 [1]: suppresses | expression of PTX3 [1]: suppresses | expression of endothelin [1]: suppresses | expression of inflammatory cytokine IL-8 [1]: suppresses | expression of thrombomodulin [1]: promotes
